Experimental data taken from patent US20110160059A1, “Herbicidal compositions comprising flufenacet” (Bayer CropScience AG, priority 2009, published 2011).

Key:
Assay type in all cases: in vivo
[1] = system: APESV=Apera spica-venti=weed; test: Greenhouse trial, post-emergence action against weeds (test method 1); settings: PO application, about 3 weeks after application
Description: (§1) In the standard design of the test, seeds of various broad-leaved weed and weed grass biotypes (origins) were sown in a 8-13 cm diameter pot filled with natural soil of a standard field soil (loamy silt; non-sterile) and covered with a covering soil layer of about 1 cm. The pots were then cultivated in a greenhouse (12-16 h of light, temperature day 20-22° C., night 15-18° C.) until the time of application. The pots were treated on a laboratory track sprayer with spray liquors comprising the compositions according to the invention, mixtures of the prior art or components used individually. Application of the active compounds or active compound combinations formulated as WG, WP, EC or otherwise was carried out at the appropriate growth stages of the plants. The application rate for the spray application was 100-600 l of water/ha. After the treatment, the plants were returned to the greenhouses.
(§2) About 3 weeks after the application, the soil action or/and foliar action was assessed visually according to a scale of 0-100% in comparison to an untreated comparative group: 0%=no noticeable effect compared to the untreated comparative group; 100%=full effect compared to the untreated comparative group.
(§3) (notes: the term “seeds” also includes vegetative propagation forms such as, for example, rhizome pieces; abbreviations used: h light=hours of illumination, g of AS/ha=gram of active substance per hectare, l/ha=liter per hectare, S=sensitive, R=resistant) • 1. Post-emergence action against weeds: seeds of various broad-leaved weed and weed grass biotypes (origins) were sown in a 8-13 cm diameter pot filled with natural soil of a standard field soil (loamy silt; non-sterile) and covered with a covering soil layer of about 1 cm. The pots were then cultivated in a greenhouse (12-16 h of light, temperature day 20-22° C., night 15-18° C.) until the time of application. The pots were treated at various BBCH stages between 11-25 of the seeds/plants, i.e. generally between two to three weeks after the start of the cultivation, on a laboratory track sprayer with spray liquors comprising the compositions according to the invention, mixtures or components used individually, as WG, WP, EC or other formulations. The application rate for the spray application was 100-600 l of water/ha. After the treatment, the plants were returned to the greenhouses and, when required, treated with fertilizer and watered. • 2. Selective post-emergence action: seeds of various crop species (origins) were sown in a 8-13 cm diameter pot filled with natural soil of a standard field soil (loamy silt; non-sterile) and covered with a covering soil layer of about 1 cm. The pots were then cultivated in a greenhouse (12-16 h of light, temperature day 20-22° C., night 15-18° C.) until the time of application. The pots were treated at various BBCH stages between 11-32 of the seeds/plants, i.e. generally between two to four weeks after the start of the cultivation, on a laboratory track sprayer with spray liquors comprising the compositions according to the invention, mixtures or components used individually, as WG, WP, EC or other formulations. The application rate for the spray application was 100-600 l of water/ha. After the treatment, the plants were returned to the greenhouses and, when required, treated with fertilizer and watered. The pots were cultivated in a greenhouse (12-16 h light, temperature day 20-22° C., night 15-18° C.).
(§4) Insofar as herbicidal effects of the compositions according to the invention compared to mixtures of the prior art or compared to components applied individually against economically important mono- and dicotyledonous harmful plants were the center of attention, the synergistic herbicidal activities were calculated using Colby's formula (cf. S. R. Colby; Weeds 15 (1967), 20-22): […]

[2] = system: VIOAR=Viola arvensis=weed; test: as above; settings: PO application, about 3 weeks after application
Description: as §1, §2, §3, §4

[3] = system: HORVS=Hordeum vulgare, summer barley=crop plant; test: Greenhouse trial, selective post-emergence action on crop (test method 2)
Description: as §1, §2
(notes: the term “seeds” also includes vegetative propagation forms such as, for example, rhizome pieces; abbreviations used: h light=hours of illumination, g of AS/ha=gram of active substance per hectare, l/ha=liter per hectare, S=sensitive, R=resistant) • 1. […]
as §4

CC(C)N(C(=O)COc1nnc(C(F)(F)F)s1)c1ccc(F)cc1 [(A) flufenacet, N-(4-fluorophenyl)-N-(1-methylethyl)-2-[[5-(trifluoromethyl)-1,3,4-thiadiazol-2-yl]oxy]acetamide]
activity on APESV, visual scale 0-100% vs untreated ([1]; 120 g of AS/ha): 60%
activity on VIOAR, visual scale 0-100% vs untreated ([2]; 120 g of AS/ha): 40%
activity (crop damage) on HORVS, visual scale 0-100% vs untreated ([3]; Hordeum vulgare (summer barley), in vivo, po): 40%

CSc1nnc(C(C)(C)C)c(=O)n1N [(C) metribuzin, 4-amino-6-(1,1-dimethylethyl)-3-(methylthio)-1,2,4-triazin-5(4H)-one]
activity on APESV, visual scale 0-100% vs untreated ([1]; 140 g of AS/ha): 79%
activity on VIOAR, visual scale 0-100% vs untreated ([2]; 140 g of AS/ha): 90%
activity (crop damage) on HORVS, visual scale 0-100% vs untreated ([3]; PO application, 140 g of AS/ha, about 3 weeks after application, greenhouse): 70%

CC(Oc1ccc(Oc2ccc(Cl)cc2Cl)cc1)C(=O)O (racemic) [(B) diclofop, (±)-2-[4-(2,4-dichlorophenoxy)phenoxy]propanoic acid]
activity on APESV, visual scale 0-100% vs untreated ([1]; 378 g of AS/ha): 0%
activity on VIOAR, visual scale 0-100% vs untreated ([2]; 378 g of AS/ha): 0%
activity (crop damage) on HORVS, visual scale 0-100% vs untreated ([3]; PO application, 378 g of AS/ha, about 3 weeks after application, greenhouse): 20%
